Results from ChEMBL document CHEMBL4507262, “Data for DCP probe A-1596586” (2021).

How the values were obtained:
[1] = biological target: 5-hydroxytryptamine receptor 2A (Homo sapiens) (UniProt P28223); assay: 5-HT2A (h) Eurofins-Cerep binding assay; set-up: ligand concentration 0.5 nM; settings: filed as antagonist, Compound concentration 10.0 uM
[2] = biological target: T1, Sigma non-opioid intracellular receptor 1 (Homo sapiens, UniProt Q99720); assay: sigma (non-selective) (h) Eurofins-Cerep binding assay; set-up: ligand concentration 10 nM; settings: filed as agonist, Compound concentration 10.0 uM
T1 sequence (Q99720 whole entry): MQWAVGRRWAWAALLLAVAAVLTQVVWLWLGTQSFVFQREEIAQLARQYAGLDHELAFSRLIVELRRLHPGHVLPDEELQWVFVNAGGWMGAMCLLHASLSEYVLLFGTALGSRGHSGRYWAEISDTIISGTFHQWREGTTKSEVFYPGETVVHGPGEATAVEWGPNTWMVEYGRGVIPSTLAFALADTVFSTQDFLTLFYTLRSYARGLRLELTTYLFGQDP

[3] = test system: Tyrosine-protein kinase ABL1 (Homo sapiens), P00519 [Y253F]; settings: Compound concentration 1000.0 nM
[4] = biological target: Tyrosine-protein kinase ABL2 (Homo sapiens) (UniProt P42684); settings: Compound concentration 1000.0 nM
[5] = biological target: Atypical kinase COQ8B, mitochondrial (Homo sapiens) (UniProt Q96D53); settings: Compound concentration 1000.0 nM
[6] = biological target: 5'-AMP-activated protein kinase catalytic subunit alpha-1 (Homo sapiens) (UniProt Q13131); settings: Compound concentration 1000.0 nM
[7] = biological target: Serine/threonine-protein kinase B-raf (Homo sapiens) (UniProt P15056); settings: Compound concentration 1000.0 nM
[8] = biological target: Serine/threonine-protein kinase BRSK2 (Homo sapiens) (UniProt Q8IWQ3); settings: Compound concentration 1000.0 nM
[9] = biological target: Macrophage colony-stimulating factor 1 receptor (Homo sapiens) (UniProt P07333); settings: Compound concentration 1000.0 nM
[10] = biological target: Casein kinase I isoform alpha-like (Homo sapiens) (UniProt Q8N752); settings: Compound concentration 1000.0 nM
[11] = biological target: Death-associated protein kinase 2 (Homo sapiens) (UniProt Q9UIK4); settings: Compound concentration 1000.0 nM
Chain of Death-associated protein kinase 2 (Homo sapiens) (Q9UIK4 whole entry, looked up, the tested form may be a part): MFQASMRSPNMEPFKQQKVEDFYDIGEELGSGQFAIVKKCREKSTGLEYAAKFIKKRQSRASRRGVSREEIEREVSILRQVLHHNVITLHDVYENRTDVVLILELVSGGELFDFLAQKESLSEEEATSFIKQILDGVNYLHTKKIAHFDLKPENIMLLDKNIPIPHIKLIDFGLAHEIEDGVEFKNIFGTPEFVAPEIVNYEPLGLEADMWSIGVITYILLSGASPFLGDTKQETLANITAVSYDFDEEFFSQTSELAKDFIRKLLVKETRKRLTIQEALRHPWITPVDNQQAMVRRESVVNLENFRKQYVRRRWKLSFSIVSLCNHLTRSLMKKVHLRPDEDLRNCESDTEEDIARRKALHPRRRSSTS

[12] = biological target: Epithelial discoidin domain-containing receptor 1 (Homo sapiens) (UniProt Q08345); settings: Compound concentration 1000.0 nM
[13] = biological target: Serine/threonine-protein kinase 17A (Homo sapiens) (UniProt Q9UEE5); settings: Compound concentration 1000.0 nM
[14] = biological target: Fibroblast growth factor receptor 3 (Homo sapiens) (UniProt P22607); settings: Compound concentration 1000.0 nM
Chain of Fibroblast growth factor receptor 3 (Homo sapiens) (P22607 23-806 limits assumed): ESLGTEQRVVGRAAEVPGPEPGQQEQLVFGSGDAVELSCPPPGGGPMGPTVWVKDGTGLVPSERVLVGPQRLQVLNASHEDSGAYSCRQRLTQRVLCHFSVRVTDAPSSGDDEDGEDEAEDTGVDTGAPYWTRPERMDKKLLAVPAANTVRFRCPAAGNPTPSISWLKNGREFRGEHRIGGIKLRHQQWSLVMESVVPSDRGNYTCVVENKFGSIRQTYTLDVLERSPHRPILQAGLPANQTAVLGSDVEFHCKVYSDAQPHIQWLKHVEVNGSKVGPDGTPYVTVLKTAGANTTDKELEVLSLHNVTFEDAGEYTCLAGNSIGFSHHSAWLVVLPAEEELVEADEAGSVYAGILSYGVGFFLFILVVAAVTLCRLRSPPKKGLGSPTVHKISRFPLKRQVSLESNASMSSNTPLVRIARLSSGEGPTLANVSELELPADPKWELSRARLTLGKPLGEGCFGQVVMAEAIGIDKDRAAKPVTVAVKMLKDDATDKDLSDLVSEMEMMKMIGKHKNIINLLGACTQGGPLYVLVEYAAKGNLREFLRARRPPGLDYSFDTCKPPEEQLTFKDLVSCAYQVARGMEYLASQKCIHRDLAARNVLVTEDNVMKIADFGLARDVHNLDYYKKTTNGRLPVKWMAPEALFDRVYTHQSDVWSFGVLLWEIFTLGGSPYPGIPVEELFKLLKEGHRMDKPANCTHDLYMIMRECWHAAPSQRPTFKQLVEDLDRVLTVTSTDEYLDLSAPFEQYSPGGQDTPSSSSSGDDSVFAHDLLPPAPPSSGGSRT

[15] = biological target: Interleukin-1 receptor-associated kinase 3 (Homo sapiens) (UniProt Q9Y616); settings: Compound concentration 1000.0 nM
[16] = biological target: Mitogen-activated protein kinase 10 (Homo sapiens) (UniProt P53779); settings: Compound concentration 1000.0 nM
[17] = test system: Mast/stem cell growth factor receptor Kit (Homo sapiens), P10721 [D816V]; settings: Compound concentration 1000.0 nM
[18] = biological target: Leucine-rich repeat serine/threonine-protein kinase 2 (Homo sapiens) (UniProt Q5S007); settings: Compound concentration 1000.0 nM
[19] = biological target: MAP kinase-activated protein kinase 5 (Homo sapiens) (UniProt Q8IW41); settings: Compound concentration 1000.0 nM
Chain of MAP kinase-activated protein kinase 5 (Homo sapiens) (Q8IW41 whole entry): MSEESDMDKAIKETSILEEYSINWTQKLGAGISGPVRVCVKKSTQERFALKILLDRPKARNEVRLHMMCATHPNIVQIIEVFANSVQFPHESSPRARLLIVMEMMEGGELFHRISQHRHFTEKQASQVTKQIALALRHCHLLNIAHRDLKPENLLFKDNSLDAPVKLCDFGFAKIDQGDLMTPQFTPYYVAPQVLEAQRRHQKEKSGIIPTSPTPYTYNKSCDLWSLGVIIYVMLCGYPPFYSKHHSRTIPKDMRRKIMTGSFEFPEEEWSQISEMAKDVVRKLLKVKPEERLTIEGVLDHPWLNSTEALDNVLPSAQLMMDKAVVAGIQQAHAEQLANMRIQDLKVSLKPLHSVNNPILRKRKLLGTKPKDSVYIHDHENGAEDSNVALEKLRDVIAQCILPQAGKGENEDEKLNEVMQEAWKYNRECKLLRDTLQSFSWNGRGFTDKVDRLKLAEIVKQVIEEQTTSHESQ

[20] = biological target: Dual specificity mitogen-activated protein kinase kinase 3 (Homo sapiens) (UniProt P46734); settings: Compound concentration 1000.0 nM
[21] = biological target: Dual specificity mitogen-activated protein kinase kinase 5 (Homo sapiens) (UniProt Q13163); settings: Compound concentration 1000.0 nM
Chain of Dual specificity mitogen-activated protein kinase kinase 5 (Homo sapiens) (Q13163 whole entry): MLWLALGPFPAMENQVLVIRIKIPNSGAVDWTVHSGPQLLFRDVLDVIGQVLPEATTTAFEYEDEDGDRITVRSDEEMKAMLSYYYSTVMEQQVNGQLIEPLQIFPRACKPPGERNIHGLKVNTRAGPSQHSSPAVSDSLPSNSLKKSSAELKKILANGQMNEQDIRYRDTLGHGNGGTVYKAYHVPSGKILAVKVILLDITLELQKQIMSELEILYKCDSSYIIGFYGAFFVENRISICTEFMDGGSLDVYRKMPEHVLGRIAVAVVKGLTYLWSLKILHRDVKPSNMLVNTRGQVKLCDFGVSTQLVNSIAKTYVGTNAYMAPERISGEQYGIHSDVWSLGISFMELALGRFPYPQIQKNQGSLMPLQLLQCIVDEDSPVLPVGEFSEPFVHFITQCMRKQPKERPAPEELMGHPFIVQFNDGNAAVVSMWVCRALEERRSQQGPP

[22] = biological target: Hepatocyte growth factor receptor (Homo sapiens) (UniProt P08581); settings: Compound concentration 1000.0 nM
[23] = biological target: Myosin light chain kinase 2, skeletal/cardiac muscle (Homo sapiens) (UniProt Q9H1R3); settings: Compound concentration 1000.0 nM
[24] = test system: Phosphatidylinositol 4,5-bisphosphate 3-kinase catalytic subunit alpha isoform (Homo sapiens), P42336 [E545A]; settings: Compound concentration 1000.0 nM
[25] = biological target: Serine/threonine-protein kinase pim-2 (Homo sapiens) (UniProt Q9P1W9); settings: Compound concentration 1000.0 nM
[26] = biological target: Serine/threonine-protein kinase N2 (Homo sapiens) (UniProt Q16513); settings: Compound concentration 1000.0 nM
Chain of Serine/threonine-protein kinase N2 (Homo sapiens) (Q16513 whole entry, looked up): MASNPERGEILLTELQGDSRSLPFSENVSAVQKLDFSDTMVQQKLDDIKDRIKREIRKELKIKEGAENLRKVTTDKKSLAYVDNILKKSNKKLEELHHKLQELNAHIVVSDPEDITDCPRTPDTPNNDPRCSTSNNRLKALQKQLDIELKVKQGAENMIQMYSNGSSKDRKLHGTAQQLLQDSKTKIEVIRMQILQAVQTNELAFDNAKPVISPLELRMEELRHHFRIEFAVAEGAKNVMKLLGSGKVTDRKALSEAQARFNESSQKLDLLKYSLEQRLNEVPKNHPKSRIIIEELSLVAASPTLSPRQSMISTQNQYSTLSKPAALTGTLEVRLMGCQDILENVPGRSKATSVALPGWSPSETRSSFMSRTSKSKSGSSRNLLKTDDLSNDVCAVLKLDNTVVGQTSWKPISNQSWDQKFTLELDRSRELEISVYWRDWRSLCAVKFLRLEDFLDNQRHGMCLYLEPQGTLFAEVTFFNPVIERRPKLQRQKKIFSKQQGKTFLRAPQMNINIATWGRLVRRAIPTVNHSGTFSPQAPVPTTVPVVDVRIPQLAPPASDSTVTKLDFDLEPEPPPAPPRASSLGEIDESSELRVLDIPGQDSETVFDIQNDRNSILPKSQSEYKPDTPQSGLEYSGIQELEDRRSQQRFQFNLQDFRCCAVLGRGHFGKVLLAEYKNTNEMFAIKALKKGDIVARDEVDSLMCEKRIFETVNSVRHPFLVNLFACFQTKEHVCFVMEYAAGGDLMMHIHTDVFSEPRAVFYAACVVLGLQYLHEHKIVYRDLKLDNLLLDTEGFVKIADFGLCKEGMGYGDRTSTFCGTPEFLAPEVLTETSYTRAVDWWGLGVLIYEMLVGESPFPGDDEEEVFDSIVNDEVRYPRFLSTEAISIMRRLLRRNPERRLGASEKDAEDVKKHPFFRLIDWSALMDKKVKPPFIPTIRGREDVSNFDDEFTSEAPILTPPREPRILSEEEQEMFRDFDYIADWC

[27] = biological target: Serine/threonine-protein kinase PLK4 (Homo sapiens) (UniProt O00444); settings: Compound concentration 1000.0 nM
[28] = biological target: Serine/threonine-protein kinase D3 (Homo sapiens) (UniProt O94806); settings: Compound concentration 1000.0 nM
[29] = biological target: Receptor-interacting serine/threonine-protein kinase 2 (Homo sapiens) (UniProt O43353); settings: Compound concentration 1000.0 nM
Chain of Receptor-interacting serine/threonine-protein kinase 2 (Homo sapiens) (O43353 whole entry): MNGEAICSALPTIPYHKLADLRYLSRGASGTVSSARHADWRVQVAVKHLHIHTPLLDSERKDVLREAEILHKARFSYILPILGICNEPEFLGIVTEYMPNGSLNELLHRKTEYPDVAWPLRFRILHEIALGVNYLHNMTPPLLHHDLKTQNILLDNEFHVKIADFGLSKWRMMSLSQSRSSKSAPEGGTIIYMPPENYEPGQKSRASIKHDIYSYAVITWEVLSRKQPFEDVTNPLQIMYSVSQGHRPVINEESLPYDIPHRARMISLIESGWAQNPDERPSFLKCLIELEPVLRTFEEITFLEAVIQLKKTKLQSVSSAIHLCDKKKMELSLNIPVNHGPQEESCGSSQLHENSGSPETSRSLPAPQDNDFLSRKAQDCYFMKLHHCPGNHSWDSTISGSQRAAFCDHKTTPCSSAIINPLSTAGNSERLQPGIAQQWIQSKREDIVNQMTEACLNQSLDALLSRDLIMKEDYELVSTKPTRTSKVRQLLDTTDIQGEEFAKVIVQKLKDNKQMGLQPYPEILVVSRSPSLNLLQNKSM

[30] = biological target: Serine/threonine-protein kinase SBK1 (Homo sapiens) (UniProt Q52WX2); settings: Compound concentration 1000.0 nM
[31] = biological target: Serine/threonine-protein kinase ULK1 (Homo sapiens) (UniProt O75385); settings: Compound concentration 1000.0 nM
[32] = biological target: Serine/threonine-protein kinase 32A (Homo sapiens) (UniProt Q8WU08); settings: Compound concentration 1000.0 nM
Chain of Serine/threonine-protein kinase 32A (Homo sapiens) (Q8WU08 whole entry): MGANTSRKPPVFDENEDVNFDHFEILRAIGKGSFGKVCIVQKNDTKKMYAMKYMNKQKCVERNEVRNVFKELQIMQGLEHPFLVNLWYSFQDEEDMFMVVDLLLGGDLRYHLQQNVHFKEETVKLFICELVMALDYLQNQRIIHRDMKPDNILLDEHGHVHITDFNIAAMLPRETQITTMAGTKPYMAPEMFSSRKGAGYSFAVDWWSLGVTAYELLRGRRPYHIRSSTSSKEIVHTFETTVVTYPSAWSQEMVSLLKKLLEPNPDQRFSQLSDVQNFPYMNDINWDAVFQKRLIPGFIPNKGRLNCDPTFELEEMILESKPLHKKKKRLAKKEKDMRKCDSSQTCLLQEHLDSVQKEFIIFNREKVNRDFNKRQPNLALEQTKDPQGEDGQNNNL

[33] = biological target: 5-hydroxytryptamine receptor 1D (Homo sapiens) (UniProt P28221); settings: Compound concentration 10.0 uM
Chain of 5-hydroxytryptamine receptor 1D (Homo sapiens) (P28221 whole entry): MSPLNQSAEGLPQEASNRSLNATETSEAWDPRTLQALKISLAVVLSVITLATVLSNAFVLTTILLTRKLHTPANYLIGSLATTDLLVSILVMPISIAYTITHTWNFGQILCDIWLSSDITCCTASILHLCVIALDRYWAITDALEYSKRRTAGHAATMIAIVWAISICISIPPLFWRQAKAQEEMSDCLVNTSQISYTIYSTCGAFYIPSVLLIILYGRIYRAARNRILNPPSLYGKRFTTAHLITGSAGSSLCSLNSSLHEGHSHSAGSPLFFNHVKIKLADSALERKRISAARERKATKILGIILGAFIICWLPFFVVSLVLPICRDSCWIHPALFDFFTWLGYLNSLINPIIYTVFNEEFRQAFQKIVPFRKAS

[34] = biological target: 5-hydroxytryptamine receptor 2B (Homo sapiens) (UniProt P41595); settings: Compound concentration 10.0 uM
[35] = biological target: T2, 5-hydroxytryptamine receptor 3A (Homo sapiens) (UniProt P46098); settings: Compound concentration 10.0 uM
T2 sequence (whole entry): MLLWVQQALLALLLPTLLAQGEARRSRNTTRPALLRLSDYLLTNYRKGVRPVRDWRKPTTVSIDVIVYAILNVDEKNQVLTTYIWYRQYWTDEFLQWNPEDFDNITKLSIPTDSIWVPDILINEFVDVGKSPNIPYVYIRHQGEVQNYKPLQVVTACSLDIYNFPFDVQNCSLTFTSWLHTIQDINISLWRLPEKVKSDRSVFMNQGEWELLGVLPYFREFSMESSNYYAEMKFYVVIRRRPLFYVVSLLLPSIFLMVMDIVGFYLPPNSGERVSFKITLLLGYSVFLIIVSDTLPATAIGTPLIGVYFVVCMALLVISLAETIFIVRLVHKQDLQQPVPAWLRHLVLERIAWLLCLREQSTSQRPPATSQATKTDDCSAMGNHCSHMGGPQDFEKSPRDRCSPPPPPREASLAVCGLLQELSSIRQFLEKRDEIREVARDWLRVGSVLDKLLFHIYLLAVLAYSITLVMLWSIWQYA

[36] = biological target: D(3) dopamine receptor (Homo sapiens) (UniProt P35462); settings: Compound concentration 10.0 uM
Chain of D(3) dopamine receptor (Homo sapiens) (P35462 whole entry): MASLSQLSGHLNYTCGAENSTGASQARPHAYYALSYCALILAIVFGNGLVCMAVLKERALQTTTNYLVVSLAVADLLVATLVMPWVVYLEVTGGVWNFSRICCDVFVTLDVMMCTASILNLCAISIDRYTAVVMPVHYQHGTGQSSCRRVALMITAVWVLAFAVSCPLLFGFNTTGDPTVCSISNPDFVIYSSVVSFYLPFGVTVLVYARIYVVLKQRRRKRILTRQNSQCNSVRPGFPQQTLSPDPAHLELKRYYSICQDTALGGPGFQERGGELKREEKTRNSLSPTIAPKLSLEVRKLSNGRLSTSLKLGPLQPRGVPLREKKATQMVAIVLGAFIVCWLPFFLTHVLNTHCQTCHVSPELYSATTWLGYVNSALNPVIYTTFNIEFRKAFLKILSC

Rattus norvegicus = species on record: Rattus norvegicus; settings: Compound concentration 10.0 uM
[37] = biological target: T1, Sigma non-opioid intracellular receptor 1; settings: Compound concentration 10.0 uM

COc1ccc2c(c1)O[C@H](c1ccc(OC)c(OC)c1)C[C@@H]2NC(=O)C1(c2ccc3c(c2)OC(F)(F)O3)CC1 [A-1596584]
-3.7%: % Inhibition of Control Specific Binding (Mean n=2) [1]
33.1%: % Inhibition of Control Specific Binding (Mean n=2) [2]
inactive: residual activity [3] 93% | residual activity [4] 100% | residual activity [5] 63% | residual activity [6] 100% | residual activity [7] 92% | residual activity [8] 88% | residual activity [9] 100% | residual activity [10] 100% | residual activity [11] 98% | residual activity [12] 100% | residual activity [13] 100% | residual activity [14] 100% | residual activity [15] 86% | residual activity [16] 100% | residual activity [17] 99% | residual activity [18] 100% | residual activity [19] 100% | residual activity [20] 100% | residual activity [21] 76% | residual activity [22] 87% | residual activity [23] 95% | residual activity [24] 100% | residual activity [25] 100% | residual activity [26] 100% | residual activity [27] 89% | residual activity [28] 100% | residual activity [29] 100% | residual activity [30] 90% | residual activity [31] 88% | residual activity [32] 100% | inhibition [33] 6.1% | inhibition [34] -0.83% | inhibition [35] -3.53% | inhibition [36] -9.23%
active: inhibition (Rattus norvegicus) 66.6% | inhibition [37] 53%

COc1ccc2c(c1)O[C@@H](c1ccc(OC)c(OC)c1)C[C@H]2NC(=O)C1(c2ccc3c(c2)OC(F)(F)O3)CC1 [A-1596586]
-7.4%: % Inhibition of Control Specific Binding (Mean n=2) [1]
35.1%: % Inhibition of Control Specific Binding (Mean n=2) [2]
active: inhibition (Rattus norvegicus) 90.5% | inhibition [37] 82.8%
inactive: residual activity [3] 78% | residual activity [4] 89% | residual activity [5] 100% | residual activity [6] 80% | residual activity [7] 100% | residual activity [8] 100% | residual activity [9] 100% | residual activity [10] 100% | residual activity [11] 98% | residual activity [12] 100% | residual activity [13] 100% | residual activity [14] 89% | residual activity [15] 85% | residual activity [16] 99% | residual activity [17] 92% | residual activity [18] 87% | residual activity [19] 76% | residual activity [20] 78% | residual activity [21] 67% | residual activity [22] 100% | residual activity [23] 90% | residual activity [24] 94% | residual activity [25] 100% | residual activity [26] 100% | residual activity [27] 84% | residual activity [28] 97% | residual activity [29] 94% | residual activity [30] 94% | residual activity [31] 75% | residual activity [32] 100% | inhibition [33] 4.36% | inhibition [34] 1.62% | inhibition [35] -1.13% | inhibition [36] -1.53%
